According to patent publication US10245275B2 (ViiV HEALTHCARE UK (NO.4) LIMITED, priority 2014, dated 2019):
Read-outs that look alike come from different tables or passages of the source.

Legend:
[1] = test system: WT (wild-type HIV virus; recombinant NL4-3 virus); experiment: microbe, parasite or virus in culture; assay type: cell-based, HIV-1
Outline: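 MT-2 cells infected 4-5 days with NL4-3 carrying Renilla luciferase in place of part of nef (Gag P373S), virus made by 293T transfection, with serial inhibitor dilutions. Antiviral activity read as luciferase activity by a modified dual-luciferase read-out.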

[2] = test system: HIV-1 92UG029 (clade A virus); experiment: HIV cell culture assay, 92UG029 Gag/Pr recombinant virus in MT-2 cells; assay type: cell-based
Procedure: MT-2 cells and 293T cells were obtained from the NIH AIDS Research and Reference Reagent Program. MT-2 cells were propagated in RPMI 1640 media supplemented with 10% heat-inactivated fetal bovine serum, […]. The 293T cells were propagated in DMEM media supplemented with 10% heat-inactivated fetal bovine serum (FBS), 100 units/mL penicillin G and 100 μg/mL streptomycin. The proviral DNA clone of NL4-3 was obtained from the NIH AIDS Research and Reference Reagent Program. A recombinant NL4-3 virus, in which a section of the nef gene from NL4-3 was replaced with the Renilla luciferase gene, was used as a reference virus. In addition, residue Gag P373 was converted to P373S. Briefly, the recombinant virus was prepared by transfection of the altered proviral clone of NL4-3. Transfections were performed in 293T cells using LipofectAMINE PLUS from Invitrogen (Carlsbad, Calif.), according to manufacturer's instruction. The virus was titered in MT-2 cells using luciferase enzyme activity as a marker. Luciferase was quantitated using the Dual Luciferase kit from Promega (Madison, Wis.), with modifications to the manufacturer's protocol. The diluted Passive Lysis solution was pre-mixed with the re-suspended Luciferase Assay Reagent and the re-suspended Stop & Glo Substrate (2:1:1 ratio). Fifty (50) μL of the mixture was added to each aspirated well on assay plates and luciferase activity was measured immediately on a Wallac TriLux (Perkin-Elmer). Antiviral activities of inhibitors toward the recombinant virus were quantified by measuring luciferase activity in cells infected for 4-5 days with NLRluc recombinants in the presence serial dilutions of the inhibitor.
Determination of EC50 for WT, EC50 for A364V, and EC50 for 92UG029 viruses:
HIV-1 92UG029 was obtained from the NIH (Catalog Number: 1650). This is a subtype A Gag and subtype A Env, X4 (SI) virus from Uganda. Reference: WHO Network for HIV Isolation and Characterization. AIDS Res Hum Retroviruses 10:1359, 1994. The Gag/Pr region from 92UG029 was used to replace that in an HIV-1 NL4-3 virus expressing Renilla luciferase gene.
Both recombinant viruses were used as described above in the HIV cell culture assay for the NL4-3 virus.

[3] = test system: HIV-1 NL4-3 gag A364V virus; experiment: microbe, parasite or virus in culture; assay type: cell-based
Outline: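 Recombinant NL4-3 reporter virus with Renilla luciferase replacing part of nef, made by transfection of 293T cells. MT-2 cells infected for 4-5 days with serial inhibitor dilutions; antiviral activity quantified by luciferase activity.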

[4] = Human immunodeficiency virus 1, NL43, MT2, read-out: WT (EC50, uM), Table 1 regular screen, MT-2 cells, luciferase readout
[5] = Human immunodeficiency virus 1, MT2, read-out: 92UG029A Clade T332S/V362I/V370A (EC50, uM)
[6] = Human immunodeficiency virus 1, NL43, MT2, read-out: A364V (EC50, uM), Table 1 regular screen, MT-2 cells, luciferase readout
[7] = Human immunodeficiency virus 1, NL43, MT2, read-out: WT (EC50, uM), Table 1 regular screen, class symbol
[8] = Human immunodeficiency virus 1, NL43, MT2, read-out: A364V (EC50, uM), Table 1 regular screen, class symbol

Compound | EC50 [1, 4] | EC50 [3, 6] | EC50 [1, 7] | EC50 [3, 8] | other results
C=C(C)[C@@H]1CC[C@]2(NCCN3CCC(S(C)(=O)=O)CC3)CC[C@]3(C)[C@H](CC[C@@H]4[C@@]5(C)CC=C(C6=CCC(CF)(C(=O)O)CC6)C(C)(C)[C@@H]5CC[C@]43C)[C@@H]12 (mixture of isomers) [Example 1, 1-(fluoromethyl)-4-((1R,3aS,5aR,5bR,7aR,11aS,11bR,13aR,13bR)-5a,5b,8,8,11a-pentamethyl-3a-((2-(4-(methylsulfonyl)piperidin-1-yl)ethyl)amino)-1-(prop-1-en-2-yl)-2,3,3a,4,5,5a,5b,6,7,7a,8,11,11a,11b,12,13,13a,13b-octadecahydro-1H-cyclopenta[a]chrysen-9-yl)cyclohex-3-enecarboxylic acid] | 0.00175 µM | 0.123 µM |  |  | EC50 [2, 5]: 0.00293 µM
C=C(C)[C@@H]1CC[C@]2(NCCN3CCC(S(C)(=O)=O)CC3)CC[C@]3(C)[C@H](CC[C@@H]4[C@@]5(C)CC=C(C6=CCC(F)(C(=O)O)CC6)C(C)(C)[C@@H]5CC[C@]43C)[C@@H]12 (some centres unmarked) [Compound A, reference compound] |  |  |  |  | EC50 ([1]; Human immunodeficiency virus 1, NL43, MT2, read-out: EC50 WT (μM), Table 2, 3× higher viral input): 0.004 µM; potency vs. WT (in words) ([1]; comparative data): good potency; EC50 ([2]; Human immunodeficiency virus 1, MT2, read-out: EC50 92UG029 (μM)): 0.61 µM; fold less potent than Compound 2 vs 92UG029 ([2]; relative to Compound 2): > 100 fold; EC50 ([3]; Human immunodeficiency virus 1, NL43, MT2, read-out: EC50 A364V (μM), Table 2, 3× higher viral input): 1.5 µM; fold less potent than Compound 2 vs A364V ([3]; relative to Compound 2): about 7 fold
C=C(C)[C@@H]1CC[C@]2(NCCN3CCC(S(C)(=O)=O)CC3)CC[C@]3(C)[C@H](CC[C@@H]4[C@@]5(C)CC=C(C6=CC[C@](CF)(C(=O)O)CC6)C(C)(C)[C@@H]5CC[C@]43C)[C@@H]12 [Example 1a, (S)-1-(fluoromethyl)-4-((1R,3aS,5aR,5bR,7aR,11aS,11bR,13aR,13bR)-5a,5b,8,8,11a-pentamethyl-3a-((2-(4-(methylsulfonyl)piperidin-1-yl)ethyl)amino)-1-(prop-1-en-2-yl)-2,3,3a,4,5,5a,5b,6,7,7a,8,11,11a,11b,12,13,13a,13b-octadecahydro-1H-cyclopenta[a]chrysen-9-yl)cyclohex-3-enecarboxylic acid] | 0.00225 µM | 0.109 µM |  |  | EC50 [2, 5]: 0.00532 µM
C=C(C)[C@@H]1CC[C@]2(NCC(=O)N3CCN(S(C)(=O)=O)CC3)CC[C@]3(C)[C@H](CC[C@@H]4[C@@]5(C)CC=C(C6=CC[C@](CF)(C(=O)O)CC6)C(C)(C)[C@@H]5CC[C@]43C)[C@@H]12 [Example 33, (S)-1-(fluoromethyl)-4-((1R,3aS,5aR,5bR,7aR,11aS,11bR,13aR,13bR)-5a,5b,8,8,11a-pentamethyl-3a-((2-(4-(methylsulfonyl)piperazin-1-yl)-2-oxoethyl)amino)-1-(prop-1-en-2-yl)-2,3,3a,4,5,5a,5b,6,7,7a,8,11,11a,11b,12,13,13a,13b-octadecahydro-1H-cyclopenta[a]chrysen-9-yl)cyclohex-3-enecarboxylic acid] |  |  | < 0.05 µM | > 0.05 µM | 
C=C(C)[C@@H]1CC[C@]2(NCC(=O)N3CCCS(=O)(=O)CC3)CC[C@]3(C)[C@H](CC[C@@H]4[C@@]5(C)CC=C(C6=CC[C@](CF)(C(=O)O)CC6)C(C)(C)[C@@H]5CC[C@]43C)[C@@H]12 [Example 34, (S)-4-((1R,3aS,5aR,5bR,7aR,11aS,11bR,13aR,13bR)-3a-((2-(1,1-dioxido-1,4-thiazepan-4-yl)-2-oxoethyl)amino)-5a,5b, 8,8,11a-pentamethyl-1-(prop-1-en-2-yl)-2,3,3a,4,5,5a,5b,6,7,7a,8,11,11a,11b,12,13,13a,13b-octadecahydro-1H-cyclopenta[a]chrysen-9-yl)-1-(fluoromethyl)cyclohex-3-enecarboxylic acid] |  |  | < 0.05 µM | < 0.05 µM | 
C=C(C)[C@@H]1CC[C@]2(NCC(=O)N3CCS(=O)(=O)C3)CC[C@]3(C)[C@H](CC[C@@H]4[C@@]5(C)CC=C(C6=CC[C@](CF)(C(=O)O)CC6)C(C)(C)[C@@H]5CC[C@]43C)[C@@H]12 [Example 35, (S)-4-((1R,3aS,5aR,5bR,7aR,11aS,11bR,13aR,13bR)-3a-((2-(1,1-dioxidothiazolidin-3-yl)-2-oxoethyl)amino)-5a,5b,8,8,11a-pentamethyl-1-(prop-1-en-2-yl)-2,3,3a,4,5,5a,5b,6,7,7a,8,11,11a,11b,12,13,13a,13b-octadecahydro-1H-cyclopenta[a]chrysen-9-yl)-1-(fluoromethyl)cyclohex-3-enecarboxylic acid] | 0.00157 µM | 0.157 µM |  |  | 
C=C(C)[C@@H]1CC[C@]2(NCC(=O)N3CCC(S(C)(=O)=O)C3)CC[C@]3(C)[C@H](CC[C@@H]4[C@@]5(C)CC=C(C6=CC[C@](CF)(C(=O)O)CC6)C(C)(C)[C@@H]5CC[C@]43C)[C@@H]12 (stereo partly drawn) [Example 36, (1S)-1-(fluoromethyl)-4-((1R,3aS,5aR,5bR,7aR,11aS,11bR,13aR,13bR)-5a,5b, 8,8,11a-pentamethyl-3a-((2-(3-(methylsulfonyl)pyrrolidin-1-yl)-2-oxoethyl)amino)-1-(prop-1-en-2-yl)-2,3,3a,4,5,5a,5b,6,7,7a,8,11,11a,11b,12,13,13a,13b-octadecahydro-1H-cyclopenta[a]chrysen-9-yl)cyclohex-3-enecarboxylic acid] |  |  | < 0.05 µM | > 0.05 µM | 
C=C(C)[C@@H]1CC[C@]2(NCC(=O)N3C[C@@H]4C[C@H]3CS4(=O)=O)CC[C@]3(C)[C@H](CC[C@@H]4[C@@]5(C)CC=C(C6=CC[C@](CF)(C(=O)O)CC6)C(C)(C)[C@@H]5CC[C@]43C)[C@@H]12 [Example 37, (S)-4-((1R,3aS,5aR,5bR,7aR,11aS,11bR,13aR,13bR)-3a-((2-((1S,4S)-2,2-dioxido-2-thia-5-azabicyclo[2.2.1]heptan-5-yl)-2-oxoethyl)amino)-5a,5b,8,8,11a-pentamethyl-1-(prop-1-en-2-yl)-2,3,3a,4,5,5a,5b,6,7,7a,8,11,11a,11 b,12,13,13a,13b-octadecahydro-1H-cyclopenta[a]chrysen-9-yl)-1-(fluoromethyl)cyclohex-3-enecarboxylic acid] |  |  | < 0.05 µM | > 0.05 µM | 
C=C(C)[C@@H]1CC[C@]2(C(=O)NCCN3CCS(=O)(=O)CC3)CC[C@]3(C)[C@H](CC[C@@H]4[C@@]5(C)CC=C(C6=CC[C@@](CF)(C(=O)O)CC6)C(C)(C)[C@@H]5CC[C@]43C)[C@@H]12 [Example 38, (R)-4-((1R,3aS,5aR,5bR,7aR,11aS,11bR,13aR,13bR)-3a-((2-(1,1-dioxidothiomorpholino)ethyl)carbamoyl)-5a,5b,8,8,11a-pentamethyl-1-(prop-1-en-2-yl)-2,3,3a,4,5,5a,5b,6,7,7a,8,11,11a,11b,12,13,13a,13b-octadecahydro-1H-cyclopenta[a]chrysen-9-yl)-1-(fluoromethyl)cyclohex-3-enecarboxylic acid] |  |  | < 0.05 µM | < 0.05 µM | 
C=C(C)[C@@H]1CC[C@]2(NCCS(=O)(=O)CCN3CCS(=O)(=O)CC3)CC[C@]3(C)[C@H](CC[C@@H]4[C@@]5(C)CC=C(C6=CC[C@](CF)(C(=O)O)CC6)C(C)(C)[C@@H]5CC[C@]43C)[C@@H]12 [Example 43, (S)-4-((1R,3aS,5aR,5bR,7aR,11aS,11bR,13aR,13bR)-3a-((2-((2-(1,1-dioxidothiomorpholino)ethyl)sulfonyl)ethyl)amino)-5a,5b,8,8,11a-pentamethyl-1-(prop-1-en-2-yl)-2,3,3a,4,5,5a,5b,6,7,7a,8,11,11a,11b,12,13,13a,13b-octadecahydro-1H-cyclopenta[a]chrysen-9-yl)-1-(fluoromethyl)cyclohex-3-enecarboxylic acid] | 0.00335 µM | 0.585 µM |  |  | 
